From PubChem BioAssay AID330 (DTP/NCI, 2004)
Inconclusive results and toxic doses are left out. The calls were made as follows: active = survival T/C of 150% or more; inactive = T/C below 125% in these data.

Tested on: P388 leukemia ip, CD2F1 mice, survival T/C
Assay: NCI In Vivo Anticancer Drug Screen. Data for tumor model P388 Leukemia (intraperitoneal) in CD2F1 (CDF1) mice
Settings: endpoint: median survival time, higher = longer survival
Method in brief: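 Mice carrying the transplanted tumor received test compound or vehicle. Survival was recorded in each group, and the value is the treated-group measurement divided by that of the vehicle-treated control group.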

[1] = dose: 50.0 mg/kg/injection, schedule: Q01DX005 (ip), vehicle: saline with Tween-80
[2] = dose: 100.0 mg/kg/injection, schedule: Q01DX005 (ip), vehicle: saline with Tween-80
[3] = dose: 200.0 mg/kg/injection, schedule: Q01DX005 (ip), vehicle: saline with Tween-80
[4] = dose: 100.0 mg/kg/injection, schedule: Q01DX001 (ip), vehicle: Klucel (hydroxypropylcellulose) (HPC)
[5] = dose: 200.0 mg/kg/injection, schedule: Q01DX001 (ip), vehicle: Klucel (hydroxypropylcellulose) (HPC)
[6] = dose: 12.5 mg/kg/injection, schedule: Q01DX009 (ip), vehicle: Klucel (hydroxypropylcellulose) (HPC)
[7] = dose: 25.0 mg/kg/injection, schedule: Q01DX009 (ip), vehicle: Klucel (hydroxypropylcellulose) (HPC)
[8] = dose: 50.0 mg/kg/injection, schedule: Q01DX009 (ip), vehicle: Klucel (hydroxypropylcellulose) (HPC)
[9] = dose: 100.0 mg/kg/injection, schedule: Q01DX009 (ip), vehicle: Klucel (hydroxypropylcellulose) (HPC)
[10] = dose: 200.0 mg/kg/injection, schedule: Q01DX009 (ip), vehicle: Klucel (hydroxypropylcellulose) (HPC)
[11] = dose: 50.0 mg/kg/injection, schedule: Q01DX005 (ip), vehicle: Klucel (hydroxypropylcellulose) (HPC)
[12] = dose: 100.0 mg/kg/injection, schedule: Q01DX005 (ip), vehicle: Klucel (hydroxypropylcellulose) (HPC)
[13] = dose: 50.0 mg/kg/injection, schedule: Q01DX005 (ip), vehicle: saline
[14] = dose: 100.0 mg/kg/injection, schedule: Q01DX005 (ip), vehicle: saline
[15] = dose: 200.0 mg/kg/injection, schedule: Q01DX005 (ip), vehicle: saline
[16] = dose: 50.0 mg/kg/injection, schedule: Q01DX009 (ip), vehicle: saline
[17] = dose: 100.0 mg/kg/injection, schedule: Q01DX009 (ip), vehicle: saline
[18] = dose: 6.25 mg/kg/injection, schedule: Q01DX009 (ip), vehicle: Klucel (hydroxypropylcellulose) (HPC)
[19] = dose: 12.5 mg/kg/injection, schedule: Q01DX009 (ip), vehicle: saline with Tween-80
[20] = dose: 25.0 mg/kg/injection, schedule: Q01DX009 (ip), vehicle: saline with Tween-80
[21] = dose: 60.0 mg/kg/injection, schedule: Q01DX005 (ip), vehicle: saline with Tween-80
[22] = dose: 120.0 mg/kg/injection, schedule: Q01DX005 (ip), vehicle: saline with Tween-80

Measured: T/C

CCOC(=O)c1ccc([O-])c([I+]c2ccccc2)c1
inactive: dose: 50.0 mg/kg/injection, schedule: Q04DX003 (ip), vehicle: Klucel (hydroxypropylcellulose) (HPC) 100 % of control | dose: 100.0 mg/kg/injection, schedule: Q04DX003 (ip), vehicle: Klucel (hydroxypropylcellulose) (HPC) 100 % of control | dose: 200.0 mg/kg/injection, schedule: Q04DX003 (ip), vehicle: Klucel (hydroxypropylcellulose) (HPC) 101 % of control

O=C(N1C2c3ccsc3[C@@H](O)C21)C(F)(F)F (stereo partly drawn)
inactive: [1] 88 % of control | [2] 95 % of control | [3] 100 % of control

FC(F)(F)C1(C(F)(F)F)OI(Cl)c2ccccc21
inactive: dose: 12.5 mg/kg/injection, schedule: Q04DX002 (ip), vehicle: Klucel (hydroxypropylcellulose) (HPC) 99 % of control | dose: 25.0 mg/kg/injection, schedule: Q04DX002 (ip), vehicle: Klucel (hydroxypropylcellulose) (HPC) 99 % of control | dose: 50.0 mg/kg/injection, schedule: Q04DX002 (ip), vehicle: Klucel (hydroxypropylcellulose) (HPC) 98 % of control

O=c1cc[nH]c2ccc3ccccc3c12
inactive: [4] 97 % of control | [5] 96 % of control

[NH-]CC[NH-].[NH-]CC[NH-].[NH-]CC[NH-].[Ni]
inactive: dose: 6.25 mg/kg/injection, schedule: Q01DX009 (ip), vehicle: saline 90 % of control | dose: 12.5 mg/kg/injection, schedule: Q01DX009 (ip), vehicle: saline 90 % of control

Cc1ccc(C(=O)N/N=C/C(=O)O)cc1
inactive: [6] 94 % of control | [7] 95 % of control | [8] 94 % of control | [9] 88 % of control | [10] 88 % of control

O=C1OCc2cc(O)ccc21
inactive: [11] 102 % of control | [12] 100 % of control | dose: 200.0 mg/kg/injection, schedule: Q01DX005 (ip), vehicle: Klucel (hydroxypropylcellulose) (HPC) 104 % of control

CC1(C)C=C(C(Br)c2ccccc2)C(=O)c2ccccc21 (stereo not drawn)
inactive: dose: 25.0 mg/kg/injection, schedule: Q01DX009 (ip), vehicle: other 100 % of control | dose: 44.0 mg/kg/injection, schedule: Q01DX009 (ip), vehicle: other 112 % of control | dose: 50.0 mg/kg/injection, schedule: Q01DX009 (ip), vehicle: other 118 % of control | dose: 150.0 mg/kg/injection, schedule: Q01DX009 (ip), vehicle: other 121 % of control | dose: 200.0 mg/kg/injection, schedule: Q01DX009 (ip), vehicle: other 116 % of control

C1=C2CCc3ccc(o3)CCC(=C1)O2
inactive: [1] 100 % of control | [2] 94 % of control | [3] 93 % of control

COc1c2occc2c(NC(=O)C(Cl)(Cl)Cl)c2ccc(=O)oc12
inactive: dose: 5.0 mg/kg/injection, schedule: Q04DX002 (ip), vehicle: saline with Tween-80 102 % of control | dose: 10.0 mg/kg/injection, schedule: Q04DX002 (ip), vehicle: saline with Tween-80 101 % of control | dose: 20.0 mg/kg/injection, schedule: Q04DX002 (ip), vehicle: saline with Tween-80 102 % of control

Cc1ccc(S(=O)(=O)N/N=C/c2c(Cl)n(C(=O)c3ccccc3C)c3ccccc23)cc1
inactive: [4] 97 % of control | [5] 91 % of control | dose: 400.0 mg/kg/injection, schedule: Q01DX001 (ip), vehicle: Klucel (hydroxypropylcellulose) (HPC) 89 % of control

O=c1[nH]cn[nH]1
inactive: [13] 101 % of control | [14] 98 % of control | [15] 95 % of control

NC(CCC(=O)NC(CS)C(=O)O)C(=O)O (stereo not drawn)
inactive: [16] 100 % of control | [17] 111 % of control

COc1ccc(CSC(=S)Nc2ccccc2C(F)(F)F)cc1
inactive: dose: 50.0 mg/kg/injection, schedule: Q01DX009 (ip), vehicle: suspension in saline 93 % of control | dose: 100.0 mg/kg/injection, schedule: Q01DX009 (ip), vehicle: suspension in saline 91 % of control | dose: 200.0 mg/kg/injection, schedule: Q01DX009 (ip), vehicle: suspension in saline 92 % of control

O=C1C=C(C2=CC(=O)c3cccc(O)c3C2=O)C(=O)c2c(O)cccc21
inactive: [18] 115 % of control | [6] 115 % of control

CC(C)(C)C1=CC(=O)C(C#N)=C(C#N)C1=O
inactive: dose: 6.25 mg/kg/injection, schedule: Q01DX009 (ip), vehicle: saline with Tween-80 95 % of control | [19] 109 % of control | [20] 100 % of control

O=C1c2cc(Oc3ccccc3)c(S(=O)(=O)O)c(S(=O)(=O)O)c2C(=O)c2c(O)ccc(O)c21
inactive: dose: 25.0 mg/kg/injection, schedule: Q01DX005 (ip), vehicle: saline 104 % of control | [13] 107 % of control | [14] 94 % of control | [15] 94 % of control

O=c1[nH]cc([N+](=O)[O-])cc1Cl
inactive: [1] 104 % of control | [2] 95 % of control

O=C(Nc1ccccc1C(=O)Nc1ccccc1C(=O)O)c1cccnc1
inactive: dose: 100.0 mg/kg/injection, schedule: Q04DX002 (ip), vehicle: saline with Tween-80 109 % of control | dose: 200.0 mg/kg/injection, schedule: Q04DX002 (ip), vehicle: saline with Tween-80 100 % of control

c1ccc(CC2CCc3ccccc3/C2=N/OCC2CO2)cc1 (stereo not drawn)
inactive: dose: 30.0 mg/kg/injection, schedule: Q01DX005 (ip), vehicle: saline with Tween-80 101 % of control | [21] 97 % of control | [22] 98 % of control

CN(C)N=Nc1cccc(Cl)c1
inactive: [18] 95 % of control | [6] 105 % of control | [19] 100 % of control | [7] 98 % of control | dose: 25.0 mg/kg/injection, schedule: Q01DX009 (ip), vehicle: saline + alcohol 107 % of control | [20] 98 % of control | dose: 25.0 mg/kg/injection, schedule: Q01DX009 (ip), vehicle: saline 91 % of control | [8] 100 % of control | dose: 50.0 mg/kg/injection, schedule: Q01DX009 (ip), vehicle: saline + alcohol 120 % of control | dose: 50.0 mg/kg/injection, schedule: Q01DX009 (ip), vehicle: saline with Tween-80 107 % of control | [16] 99 % of control | dose: 100.0 mg/kg/injection, schedule: Q01DX009 (ip), vehicle: saline with Tween-80 105 % of control | [17] 97 % of control | dose: 200.0 mg/kg/injection, schedule: Q01DX009 (ip), vehicle: saline 100 % of control

Cc1cnc(N)c(C(=O)O)n1
inactive: [11] 102 % of control | [12] 90 % of control

NC(=S)NNC(=O)c1ccc([N+](=O)[O-])cc1
inactive: [7] 100 % of control | [8] 105 % of control | [9] 99 % of control | [10] 96 % of control

CCC[CH2][Sn]([CH2]CCC)([N]=C=S)[N]=C=S
inactive: dose: 0.78 mg/kg/injection, schedule: Q01DX009 (ip), vehicle: saline 108 % of control | dose: 1.56 mg/kg/injection, schedule: Q01DX009 (ip), vehicle: saline 100 % of control | dose: 3.12 mg/kg/injection, schedule: Q01DX009 (ip), vehicle: saline 100 % of control

CS(=O)(=O)N1COC(=O)[C@@H]1c1ccccc1
inactive: [21] 100 % of control | [22] 101 % of control | dose: 240.0 mg/kg/injection, schedule: Q01DX005 (ip), vehicle: saline with Tween-80 101 % of control

CC(C)(C)C1=CC(C#N)N(Cc2ccccc2)CC1 (stereo not drawn)
inactive: dose: 60.0 mg/kg/injection, schedule: Q01DX005 (ip), vehicle: Klucel (hydroxypropylcellulose) (HPC) 110 % of control | dose: 120.0 mg/kg/injection, schedule: Q01DX005 (ip), vehicle: Klucel (hydroxypropylcellulose) (HPC) 108 % of control | dose: 240.0 mg/kg/injection, schedule: Q01DX005 (ip), vehicle: Klucel (hydroxypropylcellulose) (HPC) 109 % of control
